From ChEMBL document CHEMBL3301361, “Experimental in vitro DMPK and physicochemical data on a set of publicly disclosed compounds”

Assay: physchem
Details: octan-1-ol/water, pH 7.4, LogD7.4

logD	SMILES
1.58	CN(C)CC(O)COc1ccc(Nc2nccc(Nc3ccccc3)n2)cc1 (centres undefined)
1.48	c1ccc(-c2n[nH]c(-c3ccncc3)n2)nc1
1.5	COc1ccccc1Oc1ccc(N(Cc2cccnc2)S(=O)(=O)CC(F)(F)F)cc1
1.64	CC(C)CC(c1ccncc1)n1[nH]c(=O)c2nc3cc(Cl)ccc3c(O)c2c1=O (centres undefined)
1.7	Cc1cc(C)cc(-c2c(O)nc3cc(Cl)c(C(=O)Nc4ccncn4)cc3c2OCCC2CCCCN2)c1 (centres undefined)
1.49	CC(=O)NC[C@H]1CN(c2ccc(N3CCN(c4cnccn4)CC3)c(F)c2)C(=O)O1
1.28	N=C(N)SCc1ccc(Cl)c(Cl)c1
1.24	CC(C)Nc1ccc2cnn(-c3cncc(-n4ccc(CC(=O)O)c4)n3)c2c1
1.66	C[C@H](N)C(=O)N[C@H](/C=C/S(=O)(=O)c1ccccc1)CCc1ccccc1
1.3	O=C(Oc1ccccc1)N1CCOCC1
1.71	O=C1Nc2ccccc2C1(O)c1ccccc1 (centres undefined)
1.55	CC(C)C(=O)Nc1ccc2c(c1)C(=O)NC2=O
1.56	COC(Cn1c(=O)[nH]c2c(=O)n(CC(=O)NC(C(=O)C(F)(F)F)C(C)C)c(-c3ccccc3)cc2c1=O)OC (centres undefined)
1.7	CN(C)c1ccnc2sc(C(N)=O)c(N)c12
1.49	CC(C)N(c1nnc(N)s1)C(C)C
1.67	Cc1oc(-c2ccc(Cl)cc2)cc1C(=O)O
1.37	c1ccc(CN(Cc2ccccc2)c2nn[nH]n2)cc1
1.72	OC(c1ccccc1)c1cccnc1 (centres undefined)
1.6	CC(=O)NC[C@H]1CN(c2ccc(-n3ccc(C#N)c3)c(F)c2)C(=O)O1
1.3	NC(=O)Cc1nc(-c2ccccc2)cs1
1.34	O=S(=O)(Nc1cccnc1)c1ccc2c(c1)OCCO2
1.7	O=S(=O)(Nc1cccc2[nH]ncc12)c1cccs1
1.43	CSc1ncccc1C(=O)Nc1nccs1

logD	SMILES
1.37	Cc1ccc(O)c(O)c1
1.56	Nc1nc2ccccc2n1C(=O)c1ccccc1
1.25	Cc1cc(N)n(-c2ccccc2)n1
1.6	CC(=O)N1CCN(CC(O)COc2ccc(Br)cc2)CC1 (centres undefined)
1.54	Clc1ccc(C2=CSC3=NCCN23)cc1Cl
1.5	Nc1c(C(=O)NC2CC2)nnc2c(-c3ncccn3)cccc12
1.21	CC1CN(C(=O)c2nnc3c(-c4ncccn4)cccc3c2N)C1
1.38	Cc1cc(CN2Cc3ccccc3C2C(=O)Nc2ccc(Cl)cc2)ccc1OCC(=O)O (centres undefined)
1.39	Nc1ncc(-c2ccc(F)cc2)[nH]1
1.3	CCCc1c(OCCCCSCC(=O)O)ccc(C(C)=O)c1O
1.35	NS(=O)(=O)c1nc2ccccc2s1
1.5	COc1ccc(C(CNC(=O)Nc2ccccc2)N2CCN(C)CC2)cc1 (centres undefined)
1.61	COCCNCc1cncc(-c2ccc(F)cc2OC)n1
1.71	COc1cc(F)ccc1-c1cc(CNC2CCCC2)ccn1
1.6	COc1ccc2nc(C)cc(-n3cc(CNC(C)=O)nn3)c2c1
1.5	Cc1nsc(C)c1CCC1CCN(S(=O)(=O)CC2(N(O)C=O)CCOCC2)CC1
1.66	C[C@H]1O[C@@H](n2cnc3c(N)nc(OC4CC5CC5C4)nc32)[C@H](O)[C@@H]1O (some centres undefined)
1.4	O=S(=O)(c1ccccc1-c1ccc(CNC2CCOCC2)cc1)N1CCCC1
1.69	CCC(c1nc2ccsc2c(=O)n1Cc1ccc(C)cc1)N(CCCN)C(=O)c1ccc(C)cc1 (centres undefined)
1.33	CCC(c1nc2ccsc2c(=O)n1Cc1ccccc1)N(CC1CCNCC1)C(=O)c1ccc(C)cc1 (centres undefined)
1.39	CCC(c1nc2ccsc2c(=O)n1Cc1ccccc1)N(CCCN)C(=O)c1ccc(OC)cc1 (centres undefined)
1.37	CCC(c1nc2ccoc2c(=O)n1Cc1ccccc1)N(CCCN)C(=O)c1ccc(C)cc1 (centres undefined)
1.61	CCC(c1nc2snc(C)c2c(=O)n1Cc1ccccc1)N(CCCN)C(=O)c1ccc(C)cc1 (centres undefined)

logD	SMILES
1.3	Cc1ccc(NC(=O)c2ccnc(N3CCOCC3)c2)cc1Nc1ccnc(OCCCN(C)C)n1
1.37	NC(=O)c1ccc(=O)n(Cc2ccc(F)c(F)c2)c1
1.38	OC1(c2ccccc2)CNCCc2ccccc21 (centres undefined)
1.52	CCC(CC)NC(=O)c1cnn(Cc2ccccc2)c1NS(=O)(=O)c1ccc(C)cc1
1.72	COc1ccc2c(C)cc(=O)n(CCN3CCC(NCc4cc5c(cn4)OCCO5)CC3)c2c1
1.42	C[C@H]1O[C@@H](n2cnc3c(N)nc(OCC4CC(F)(F)C4(F)F)nc32)[C@H](O)[C@@H]1O (some centres undefined)
1.72	C[C@H]1O[C@@H](n2cnc3c(N)nc(OCC4CCC(F)(F)CC4)nc32)[C@H](O)[C@@H]1O
1.47	CN[C@@H](C)C(=O)N[C@H](C(=O)N[C@H]1CCCN(CCc2cccc(OC)c2)C1)C(C)(C)C
1.45	CN[C@@H](C)C(=O)N[C@H](C(=O)N[C@H]1CCCN(CCc2ccc(OC)cc2)C1)C(C)(C)C
1.7	Nc1n[nH]c2c(Cl)cccc12
1.36	COc1ccc(-c2nc3c(NCC4CCNCC4)c(Br)cnc3[nH]2)cc1
1.71	COc1ccc(-c2nc3c(NCCCNC(=O)C4CC4)c(Br)cnc3[nH]2)cc1
1.52	COc1ccc(-c2cc(=O)[nH]c(N)n2)cc1
1.6	O=c1c2ccc(O)cc2ncn1-c1ccc(O)cc1
1.5	O=C(O)Cc1ccc(-c2ccc(NC(=O)c3nnc(Nc4ccccc4F)o3)cc2)cc1
1.65	CC(C)Cn1c(=O)n(C)c(=O)c2c(C(=O)N3CC[C@@H](O)C3)c(Cc3ccnc4ccccc34)sc21
1.32	NC(=O)Nc1cc(-c2cccc(F)c2F)sc1C(=O)N[C@H]1CCCNC1
1.72	Nc1ccc2c(c1)C(=O)C(=O)c1cc(N)ccc1-2
1.69	c1ccc2c(c1)nnn2-c1ccncc1
1.63	CCCSc1ncccc1C(=O)N(C)C1CCOCC1
1.36	CCCSc1nc(N2CCCCC2C(=O)O)ccc1C(=O)NC1CCCCC1 (centres undefined)
1.72	CCCSc1nc(N2CCCC(C(=O)O)C2)ccc1C(=O)NC1CCCCC1 (centres undefined)
1.71	O=C(O)C(c1ccccc1)N1CCO[C@@H](CN2CCC(Oc3ccc(Cl)c(Cl)c3)CC2)C1 (some centres undefined)

logD	SMILES
1.73	O=C(O)c1ccccc1C(=O)N1CCC(N2CCC(Oc3ccc(Cl)c(Cl)c3)CC2)CC1
1.6	Cc1ccc(S(=O)(=O)NC(=O)N2CCC(N3CCC(Oc4ccc(Cl)cc4)CC3)CC2)cc1
1.3	CN1CCN(c2ccc(Nc3ccnc4ccccc34)cc2)CC1
1.4	Cc1nc(C)c(-c2ccc3c(c2)CC[C@]32CC[C@@H](c3nnn[nH]3)CC2)nc1C(N)=O
1.3	Cc1nc(C)c(-c2ccc([C@H]3CC[C@H](CC(=O)O)CC3)c(F)c2)nc1C(N)=O
1.7	CC1=NC(C)(c2cccc(-c3cccnc3)c2)N=C1N (centres undefined)
1.64	C1=CCC(c2ccc3ccccc3c2)CNC1 (centres undefined)
1.3	CC(NC(=O)C1(N)CCN(c2ncnc3[nH]ccc23)CC1)c1ccccn1 (centres undefined)
1.4	CN(C)CCCC(NC(=O)C1(N)CCN(c2ncnc3[nH]ccc23)CC1)c1ccc(Cl)cc1 (centres undefined)
1.3	NC1(C(=O)NC(CCCN2CCCC2)c2ccc(Cl)cc2)CCN(c2ncnc3[nH]ccc23)CC1 (centres undefined)
1.4	CN(C)CCNCc1ccc(Nc2ncc3cc(-c4ccncc4)ccc3n2)cc1
1.69	C[C@@H](NC(=O)[C@H]1CCCNC1)c1ccc(Nc2ncc3cc(-c4ccncc4)ccc3n2)cc1
1.26	CNCc1cccc(-c2ccc3c(N4CCOCC4)nc(N4C[C@@H](C)O[C@@H](C)C4)nc3n2)c1
1.62	CCCCCc1cc(=O)[nH]c(N)n1
1.46	NC1=NC(c2ccc(Cl)c(Cl)c2)CC(=O)N1 (centres undefined)
1.31	O=[N+]([O-])c1ccc(C=NO)o1
1.47	Cc1ccc(C(=O)N(CCCN)Cc2nc3cc(Cl)ccc3c(=O)n2Cc2ccccc2)cc1
1.38	CC(C)C(NC(=O)Cn1c(-c2cc(F)cc(F)c2)ncc(N)c1=O)C(=O)C(F)(F)F (centres undefined)
1.63	Cn1c(=N)n(CC(=O)c2ccc(Cl)cc2)c2ccccc21
1.33	O=C(NCCCN1CCCCC1)C(c1ccccc1)c1ccccc1
1.5	C[C@@H]1CN(C(=O)[C@@](C)(O)C(F)(F)F)[C@@H](C)CN1C(=O)c1ccc(C#N)cc1
1.48	CN(C)CC(O)COc1ccc(Nc2cc(Nc3ccc(F)cc3F)ncn2)cc1 (centres undefined)
1.68	CNC(=O)c1cccc(S(=O)(=O)Nc2ncc(C)nc2OC)c1-c1ccc(CC(C)C)cc1

logD	SMILES
1.48	CC(C)C(NC(=O)Cn1c(-c2ccccc2)ccc(NC(=O)NCc2ccc[n+]([O-])c2)c1=O)C(=O)C(F)(F)F (centres undefined)
1.5	O=C(Nc1ccc(O)cc1)c1ccc(O)cc1
1.26	C[Si](C)(C)C#Cc1cn(C[C@H]2CN(c3ccc(C4=CCS(=O)(=O)CC4)c(F)c3)C(=O)O2)nn1
1.62	COc1cc2c(Nc3c(Cl)ccc4c3OCO4)ncnc2cc1OCCCN1CCCC1
1.58	O=C(NCC12CC3CC(CC(C3)C1)C2)c1cc(C2CCNCC2)ccc1Cl
1.59	CC1(c2ccc(Cl)c(Cl)c2)CC(=O)NC(N)=N1 (centres undefined)
1.65	O=C(O)c1ccc(Nc2ncc(Br)c(Nc3ccccc3)n2)cc1
1.51	CC(=O)NC[C@H]1CN(c2ccc(-n3cnc(C#N)c3)c(F)c2)C(=O)O1
1.51	Clc1ccc(C2(c3ccc(-c4cn[nH]c4)cc3)CCNCC2)cc1
1.52	Oc1c2ncc3ccccc3c2nn1-c1ccc(Cl)cc1
1.22	CN[C@H]1CCN(C(=O)c2ccc(Nc3nccc(-c4cnc(C)n4C(C)C)n3)cc2)C1
1.71	COc1cc2c(Nc3ccc(F)cc3F)c(C(N)=O)cnc2cc1NCCN(C)C
1.54	COC(=O)COc1ccc(OCCNCC(O)COc2ccccc2)cc1 (centres undefined)
1.27	NC(=O)Nc1sc(-c2ccccc2)cc1C(=O)N[C@H]1CCCNC1
1.65	O=C(c1cc2cc(Cl)ccc2[nH]1)N1CCNCC1
1.39	Cc1cc(N)c2cc(NC(=O)CCC(=O)Nc3ccc4nc(C)cc(N)c4c3)ccc2n1
1.58	CC(C)CCCC(C)/N=c1\ccn(Cc2ccccc2)c2cc(Cl)ccc12 (centres undefined)
1.41	CNC[C@H](O)c1ccc(Cl)c(C(=O)NCC23CC4CC(CC(C4)C2)C3)c1
1.24	Nc1nc(SCc2ccccc2)nc2c1ncn2[C@@H]1O[C@H](CO)[C@@H](O)[C@H]1O
1.74	COc1nc(Cl)cnc1NS(=O)(=O)c1cccc2c(N(C)C)cccc12
1.33	Nc1ccc2ncccc2c1

SMILES	logD
CN(C)C(=O)c1ccc(CN2CCc3cc4nc(N)sc4cc3CC2)cc1	1.72
